Assay results reported in ChEMBL document CHEMBL1147761, “Novel 1,3-dipropyl-8-(1-heteroarylmethyl-1H-pyrazol-4-yl)-xanthine derivatives as high affinity and selective A2B adenosine receptor antagonists” (Bioorg Med Chem Lett, 2006).

Assays:
Type in all cases: protein assay
[1] = biological target: Adenosine receptors; A1 & A2b (Homo sapiens) (UniProt P30542+P29275); assay: Selectivity of adenosine A1 receptor over adenosine A2B receptor
[2] = biological target: Adenosine A2 receptor (Homo sapiens) (UniProt P29275+P29274); assay: Selectivity of adenosine A2A receptor over adenosine A2B receptor
[3] = biological target: Adenosine receptors; A2b & A3 (Homo sapiens) (UniProt P29275+P0DMS8); assay: Selectivity of adenosine A3 receptor over adenosine A2B receptor

Sequence of Adenosine receptors; A1 & A2b (Homo sapiens) (P29275 whole entry, looked up): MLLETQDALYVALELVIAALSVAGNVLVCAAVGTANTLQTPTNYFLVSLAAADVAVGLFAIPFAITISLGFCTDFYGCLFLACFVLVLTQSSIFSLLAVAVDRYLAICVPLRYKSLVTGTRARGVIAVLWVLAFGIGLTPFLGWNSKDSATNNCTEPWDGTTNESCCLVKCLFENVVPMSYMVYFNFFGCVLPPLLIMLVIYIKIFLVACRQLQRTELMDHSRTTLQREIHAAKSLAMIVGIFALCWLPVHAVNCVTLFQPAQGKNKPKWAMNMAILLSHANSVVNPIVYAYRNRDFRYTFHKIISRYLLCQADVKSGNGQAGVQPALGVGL
Sequence of Adenosine receptors; A1 & A2b (Homo sapiens) (P30542 whole entry, looked up): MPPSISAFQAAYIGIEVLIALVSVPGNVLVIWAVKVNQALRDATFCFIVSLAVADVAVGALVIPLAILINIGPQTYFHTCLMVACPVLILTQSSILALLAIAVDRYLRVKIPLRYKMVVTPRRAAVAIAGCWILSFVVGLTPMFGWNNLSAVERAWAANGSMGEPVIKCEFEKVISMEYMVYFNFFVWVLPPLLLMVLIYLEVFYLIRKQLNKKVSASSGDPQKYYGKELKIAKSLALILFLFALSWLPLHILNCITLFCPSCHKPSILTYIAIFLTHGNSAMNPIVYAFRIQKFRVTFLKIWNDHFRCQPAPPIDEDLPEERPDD
Sequence of Adenosine A2 receptor (Homo sapiens) (P29274 whole entry, looked up): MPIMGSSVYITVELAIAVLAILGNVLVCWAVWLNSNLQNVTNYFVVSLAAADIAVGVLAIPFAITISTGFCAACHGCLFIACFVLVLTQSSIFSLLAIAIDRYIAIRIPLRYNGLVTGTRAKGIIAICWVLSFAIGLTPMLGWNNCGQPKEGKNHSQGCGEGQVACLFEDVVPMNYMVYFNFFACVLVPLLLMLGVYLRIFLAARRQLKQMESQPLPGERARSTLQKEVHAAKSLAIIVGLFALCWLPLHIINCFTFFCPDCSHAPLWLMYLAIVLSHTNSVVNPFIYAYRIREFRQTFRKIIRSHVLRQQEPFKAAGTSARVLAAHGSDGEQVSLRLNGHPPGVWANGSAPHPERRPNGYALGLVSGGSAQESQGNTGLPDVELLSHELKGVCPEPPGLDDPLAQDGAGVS
Sequence of Adenosine A2 receptor (Homo sapiens) (P29275 whole entry, looked up): as the sequence (P29275 whole entry, looked up) above

Row | Ratio Ki [1] | Ratio Ki [2] | Ratio Ki [3] | SMILES
1 | 31 | > 79 | 48 | CCCn1c(=O)c2nc(-c3cnn(Cc4cc(-c5ccc(OC)cc5)on4)c3)[nH]c2n(CCC)c1=O
2 | 19 | > 50 | 6 | CCCn1c(=O)c2nc(-c3cnn(Cc4noc(-c5ccccc5C(F)(F)F)n4)c3)[nH]c2n(CCC)c1=O
3 | 23 | 19 | 5 | CCCn1c(=O)c2nc(-c3cnn(Cc4nc(-c5ccccc5OC)no4)c3)[nH]c2n(CCC)c1=O
4 | 11 | > 39 | 8 | CCCn1c(=O)c2nc(-c3cnn(Cc4nc(-c5cccc(C)c5)no4)c3)[nH]c2n(CCC)c1=O
5 | 6 | 14 | 40 | CCCn1c(=O)c2nc(-c3cnn(Cc4cc(-c5ccc(Cl)cc5)on4)c3)[nH]c2n(CCC)c1=O
6 | > 93 | > 78 | 27 | CCCn1c(=O)c2nc(-c3cnn(Cc4noc(-c5cccc(C(F)(F)F)c5)n4)c3)[nH]c2n(CCC)c1=O
7 | 20 | > 156 | 15 | CCCn1c(=O)c2nc(-c3cnn(Cc4nc(-c5cccc(Cl)c5)no4)c3)[nH]c2n(CCC)c1=O
8 | 26 | > 60 | 7 | CCCn1c(=O)c2nc(-c3cnn(Cc4nc(-c5cccc(OC)c5)no4)c3)[nH]c2n(CCC)c1=O
9 | 60 | > 90 | 23 | CCCn1c(=O)c2nc(-c3cnn(Cc4nc(-c5ccc(C(F)(F)F)cc5)no4)c3)[nH]c2n(CCC)c1=O
10 | 70 | > 277 | 53 | CCCn1c(=O)c2nc(-c3cnn(Cc4nc(-c5ccc(C#N)cc5)no4)c3)[nH]c2n(CCC)c1=O
11 | 5 | 68 | 54 | CCCn1c(=O)c2nc(-c3cnn(CC(=O)Nc4ccccc4Cl)c3)[nH]c2n(CCC)c1=O
12 | 48 | 35 | 25 | CCCn1c(=O)c2nc(-c3cnn(Cc4cc(-c5ccc(C(F)(F)F)cc5)on4)c3)[nH]c2n(CCC)c1=O
13 | 48 | 55 | 160 | CCCn1c(=O)c2nc(-c3cnn(Cc4nc(-c5ccc(C)cc5)no4)c3)[nH]c2n(CCC)c1=O
14 | 6 | > 37 | 15 | CCCn1c(=O)c2nc(-c3cnn(Cc4noc(-c5cccc(OC)c5)n4)c3)[nH]c2n(CCC)c1=O
15 | 16 | 65 | 9 | CCCn1c(=O)c2nc(-c3cnn(Cc4noc(-c5ccccc5Cl)n4)c3)[nH]c2n(CCC)c1=O
16 | 16 | > 25 | 24 | CCCn1c(=O)c2nc(-c3cnn(Cc4cc(-c5ccccc5OC)on4)c3)[nH]c2n(CCC)c1=O
17 | 40 | > 357 | 45 | CCCn1c(=O)c2nc(-c3cnn(Cc4noc(-c5ccc(C#N)cc5)n4)c3)[nH]c2n(CCC)c1=O
18 | > 54 | 24 | 20 | CCCn1c(=O)c2nc(-c3cnn(Cc4cc(-c5ccccc5Cl)on4)c3)[nH]c2n(CCC)c1=O
